Measurements as given in patent US20130338092A1, “COMPOUNDS AND METHODS FOR TARGETING LEUKEMIC STEM CELLS” (The Broad Institute, Inc., priority 2011, published 2013).
“Also recorded” adds a separate entry of the source. Like-named read-outs stand apart in the source and are kept apart here.

Experiments:
[1] = tested on: primary leukemia cocultures; assay: Mevalonolactone rescue experiment; format: cell-based, murine; settings: 2 mM mevalanolactone with 1 μM lovastatin, 5 days
Protocol: Primary leukemia cocultures were plated as described, and treated with 2 mM mevalanolactone and/or 1 μM lovastatin as shown, for 5 days. Total leukemia cells were counted using MetaXpress software from MDC. Carriers were controlled for across all treatments. The viability of the stroma was assessed using stromal monolayers grown alone and treated in parallel, with the same readout described in the stromal toxicity screen here.

[2] = tested on: LSC-enriched leukemia cells on OP9 stromal cells; assay: Leukemia coculture assay on OP9 stroma (primary screen); format: cell-based, murine; settings: 5 μM
Protocol: Plate covers were re-added and the plates were placed in the incubator for 24 hours. The plate covers were removed, 100 nl of compound in dimethyl sulfoxide (DMSO) (final concentration 5 μM in 0.2% DMSO) was added to the appropriate wells using a CyBi-Well Vario (CyBio) the plate covers were replaced, and the plates were placed in the incubator for 3 days. Plate covers were removed, the media was aspirated from each plate, 50 μl of fresh media (50/50 coculture and OP9 conditioned media mix) was added and another 100 nl of compound was added to the appropriate wells. The plates were re-covered and placed in the incubator for 2 days. At this point, the plates were imaged using a IX Microscope (Molecular Devices) at 10× magnification at 9 sites per well in both the GFP and dsRed channels. Images were stored on the Broad Institute server for future analysis. […]
Briefly, primary dsRed^+ leukemia cells enriched for LSCs were isolated by flow cytometry and cocultured on GFP^+ OP9 stromal monolayers, treated with 5 μM of compound (to a final concentration of 0.2% DMSO), and imaged 5 days later by automated microscopy (dsRed channel for leukemia, and GFP channel for stroma) (FIG. 1). The stored images were analyzed for levels of cobblestoning as described herein.

[3] = tested on: human AML cell lines (U937, THP-1, NOMO-1, SKM-1, NB4, and OCI-AML3); assay: AML cell line screen (CellTiter-Glo); format: cell-based; settings: for IC50: Homo sapiens, AML cell line screens, read-out: IC50s across 6 cell lines
Protocol: Nomo-1, THP-1, SKM-1, NB4, and U937 cell lines were grown in RPMI (12-702F, BioWhittaker), 10% FBS (10082-147, Gibco), and 1% Pen-Strep (15140-122, Gibco) and OCI-AML3 was grown in α-MEM (36453, Stem Cell Technologies), 10% FBS (10082-147, Gibco), and 1% Pen-Strep (15140-122, Gibco). 3000 cells were plated in each well in 30 μl in white, 384 well plates (3570, Corning) and 16 hours later 100 nl of the appropriate compound was added to each well. 72 hours later the plates were cooled to room temperature and 30 μl of CellTiterGlo reagent (G7570, Promega) diluted 1:1 in PBS was added to each well and the plates were analyzed using an Envision (Perkin Elmer).
First, a traditional small molecule screen was performed on six human AML cell lines (U937, THP-1, NOMO-1, SKM-1, NB4, and OCI-AML3), two of which (NOMO-1, THP-1) contain the same oncogene (MLL-AF9) used to generate the primary leukemia cells utilized in our coculture system. The cell lines were grown in isolation under standard conditions, treated with the 160 compounds at 8-point dose, and three days later the viability of each well was quantified using CellTiter-Glo reagent. The IC50s from these AML cell line screens were then compared to the IC50s from the coculture screens. […] As discussed, the existence of such differentially-active compounds is consistent with our hypothesis that coculturing can expand the pool of therapeutically promising compounds identified in high throughput format.

[4] = tested on: CD34+ cells from primary human leukemia samples; assay: Human CD34+ CAFC assay, leukemia samples; format: cell-based; settings: 1.25 μM to 10 μM, 18 hours exposure, read at 5 weeks (2 weeks FLT3-ITD)
Protocol: Samples were centrifuged over Ficoll-Paque PLUS (GE Heathcare) step gradient (2000×g for 30 min in 50 ml tubes) to obtain mononuclear cells and then CD34^+ cells were selected with immunomagnetic beads (MACS Cell Separation, Miltenyi Biotec, Auburn, Calif.), except in one case, NPM1 mutation, which was CD34^− by flow cytometry and mononuclear cells were used. 50,000 cells were placed into 12.5 cm^2 flasks (Becton Dickinson Labware, Franklin Lakes, N.J.) in co-culture with the MS-5 mouse bone marrow-derived stromal cell line (kindly provided by Dr. Itoh, Dept. of Biology, Niigata University, Japan) and DMSO control and the number of final cobblestones was later read. The number of cells needed to form one cobblestone was then placed in triplicate for each sample with each drug at serial drug dilutions from 10 μM to 0.63 μM as well as with DMSO 0.5% for control purposes and incubated overnight with Iscove's modified Dulbecco's medium (IMDM, in house media preparation laboratory)+20% fetal calf serum (FCS, Atlanta Biologicals, Lawrenceville, Ga.) with glutamine (2 mM/ml, in house media preparation laboratory), monothioglycerol (MTG, 10 nM/ml, Sigma Cell Culture, St. Louis Mo.), c-Kit ligand (20 ng/ml, Amgen, Thousand Oaks, Calif.), Flt ligand (20 ng/ml, Imclone, Bridgewater, N.J.), TPO (20 ng/ml, Amgen) and IL-3 (20 ng/ml, Amgen). Cells were then washed to remove the drugs and placed into 96 well cell culture plates (Becton Dickinson) with α-MEM (in house media preparation laboratory)+12.5% FCS+12.5% horse serum (Gemini Bio-products, West Sacramento, Calif.) with glutamine, MTG, hydrocortisone (1 nM/ml, Sigma) and IL-3 in co-culture with MS-5 stromal cells. […] The same procedure was followed with normal CD34+ cells obtained from cord blood.
(§1) The cells were treated with compound or DMSO carrier control at four doses (ranging from 1.25 μM to 10 μM) in triplicate for 18 hours, washed thoroughly, then plated onto human stromal MS-5 monolayers (Itoh, K., Tezuka, H., Sakoda, H., Konno, M., Nagata, K., Uchiyama, T., Uchino, H., and Mori, K. J. (1989). Exp Hematol 17, 145-153.) and maintained in coculture with one subsequent half media change. After 5 weeks (2 weeks for the FLT3-ITD sample (Moore, M. A., Dorn, D. C., Schuring a, J. J., Chung, K. Y., and Morrone, G. (2007). Exp Hematol 35, 105-116.)), cobblestone formation was determined, and dose-response curves against the 7 cell types were generated for each compound.

[5] = tested on: primary CD34+ cells from normal human cord blood; assay: Human CD34+ CAFC assay, normal cells; settings: 1.25 μM to 10 μM, 18 hours exposure
Protocol: Samples were centrifuged over Ficoll-Paque PLUS (GE Heathcare) step gradient (2000×g for 30 min in 50 ml tubes) to obtain mononuclear cells and then CD34^+ cells were selected with immunomagnetic beads (MACS Cell Separation, Miltenyi Biotec, Auburn, Calif.), except in one case, NPM1 mutation, which was CD34^− by flow cytometry and mononuclear cells were used. 50,000 cells were placed into 12.5 cm^2 flasks (Becton Dickinson Labware, Franklin Lakes, N.J.) in co-culture with the MS-5 mouse bone marrow-derived stromal cell line (kindly provided by Dr. Itoh, Dept. of Biology, Niigata University, Japan) and DMSO control and the number of final cobblestones was later read. The number of cells needed to form one cobblestone was then placed in triplicate for each sample with each drug at serial drug dilutions from 10 μM to 0.63 μM as well as with DMSO 0.5% for control purposes and incubated overnight with Iscove's modified Dulbecco's medium (IMDM, in house media preparation laboratory)+20% fetal calf serum (FCS, Atlanta Biologicals, Lawrenceville, Ga.) with glutamine (2 mM/ml, in house media preparation laboratory), monothioglycerol (MTG, 10 nM/ml, Sigma Cell Culture, St. Louis Mo.), c-Kit ligand (20 ng/ml, Amgen, Thousand Oaks, Calif.), Flt ligand (20 ng/ml, Imclone, Bridgewater, N.J.), TPO (20 ng/ml, Amgen) and IL-3 (20 ng/ml, Amgen). […]
as §1

[6] = tested on: normal HSPCs; assay: Normal HSPC coculture on primary MSC stroma; settings: Mus musculus
Protocol: The material was cleaned, crushed and sequentially passed through 100 and 70 μM filters (Falcon). […] The biotin-labeled cells were spun down, resuspended in 0.5% FBS in PBS, and incubated for 15-30 minutes at 4° C. with agitation with 1 mL of Dynabead M-280 streptavidin-linked magnetic beads per 4 mice. The bead-linked cells were depleted using magnetic separation and rinsed once. The lineage- and CD48-depleted cell fraction was labeled with streptavidin-APC-Cy7 antibody from BD Biosciences and c-kit-APC, Sca-1-FITC, CD48-Pacific Blue, and CD150 PE-Cy7 antibodies from eBioscience. DsRed-positive lineage-Sca-1+c-kit+CD48− HSCs were sorted using a FACS DiVa or FACS ARIA (BD Biosciences).
A total of 20 μL of 20 μg/mL fibronectin (Millipore) in PBS was added to each well of a 384-well clear-bottomed black tissue-culture treated plate (Corning) and incubated for 30-120 minutes at 33° C. or 37° C. […] The fibronectin solution was removed from each well using a 24-channel wand aspirator; then 30 μL of BMSC solution was added to plate 2000 BMSCs/well. […] Each plate was covered with a sterile rayon breathable membrane (VWR) and plastic lid, and then spun at 500 rpm (approximately 60× gravity) with slow braking. The plates were incubated at room temperature for 60-90 minutes before incubation at 33° C. with 5% CO2 for 3 days prior to HSC addition.
The sorted HSCs, SLAMs and progenitor cells were resuspended in phenol-red free alpha-MEM with 20% FBS and diluted to 10,000 cells/mL. A total of 20 μL of cell solution containing 200 hematopoietic cells was added to each well using a multichannel pipettor or liquid-dispensing system. Each plate was covered with a sterile rayon breathable membrane (VWR) and plastic lid, and then spun at 500 rpm (approximately 60×gravity) with slow braking. The plates were incubated at room temperature for 60-90 minutes before incubation at 33° C. with 5% CO2 overnight prior to compound or cytokine addition.
Image analysis was performed using MetaXpress software from MDC and CellProfiler software from the Broad Institute of Harvard and MIT.
Compound addition and incubation was performed as described for the LSC coculture screen above, but without a media change or readdition of the compound.
The selected set was screened in 8-point dose against both normal HSPCs with a high number of replicates (6) and LSC-enriched leukemia cells, each cocultured on primary MSCs.

[7] = tested on: LSC-enriched leukemia cells (MLL-AF9); assay: Leukemia coculture assay on primary MSC stroma (cobblestoning readout); format: cell-based, murine; settings: for IC50: Mus musculus; for leukemia-selective activity in coculture vs normal HSPCs: primary MSC stroma
Protocol: Whole bone marrow were harvested from C57/B16 actin-dsRed mice (006051, Jackson Labs), subjected to red blood cell lysis (Qiagen), then granulocyte-macrophage progenitors (GMPs) were isolated by Fluorescence-activated cell sorting (FACsAria, Becton Dickinson). GMPs were spinfected twice (2500 rpm, 90 min, 37 C) in the presence of mIL3 (10 ng/ml, Peprotech), mIL6 (10 ng/ml, Peprotech), and mSCF (10 ng/ml, Peprotech) with pMSCV-MLL-AF9-Neo virus then transplanted into lethally irradiated C57/B16 recipients. After disease onset, the spleens were harvested and transplanted into sublethally irradiated secondary recipients. Subsequent transplantation of bulk spleen cells from leukemic secondary mice was repeated twice to generate leukemic GMPs from quaternary transplant leukemic mouse bone marrow.
Long bones and hips from moribund leukemic mice were harvested, cleaned, crushed and sequentially passed through 100 and 70 μM filters (Falcon). The cells were RBC lysed (Qiagen) and stained in PBS+2% FBS (Omega). Antibodies included lineage markers CD4, CD8, Gr1, Mac1, IL-7R, and Ter119 (Caltag), c-kit (17-1172-83, eBioscience), Sca-1 (11-5981-82, eBioscience), CD34 (11-0341-85, eBioscience), and CD16/32 (25-0161-82, eBioscience). Hoechst 33258 (H21491, Invitrogen) was also used, to identify live cells. Cells were sorted on a FacsAria II (Becton Dickinson).
The humerii, tibiae, ilia, femurs, and spine were isolated from actin-GFP mice (000329, Jackson Lab) crushed using a mortar and pestle, washed in phosphate-buffered saline (PBS) without magnesium and calcium (Gibco) with 0.5% fetal bovine serum (FBS) (HyClone) and filtered through a 70-μm filter. Red blood cell lysis was performed with ammonium-chloride/potassium-chloride (ACK) lysing buffer (Lonza), the cells were resuspended in α-MEM (StemCell Technologies), 20% FBS (HyClone) and 1× Pen-Strep (CellGro), plated in 25 ml in 150-cm^2 tissue-culture flasks (three per mouse), and incubated at 33° C. with 5% CO2. After 2-3 days, the medium was replaced with fresh α-MEM with 20% FBS. After 8-14 days, the cells were rinsed, split by trypsinization (CellGro), pooled, filtered through a 70 μm filter, replated at 3-4 million cells per 150-cm^2 tissue-culture flask, and grown at 33° C. with 5% CO2 for 3-4 days until nearly confluent. The cells were trypsinized, filtered, and resuspended in 0.5% FBS in PBS with biotin-conjugated anti-mouse CD105 antibody (eBioscience) for 15-30 minutes at room temperature. The CD105-labeled cells were incubated with Dynabead M-280 streptavidin-linked magnetic beads (Invitrogen) for 15-30 minutes at 4° C. with agitation and isolated using magnetic separation and rinsed once. The CD105^+ cell fraction was replated at 1-2 million cells per 150-cm^2 tissue-culture flask and incubated at 33° C. with 5% CO2 for 2-3 days.
The MSCs were trypsinized, filtered, diluted in phenol-red-free alpha-MEM with 20% FBS, and plated (30 μl for a total of 2000 cells per well) on 384-well clear-bottomed black tissue-culture treated plate (3712, Corning) pretreated with fibronectin (Millipore). Plate covers (VWR) were added, the plates were spun and at 500 with slow braking, and the cells were incubated at room temperature for 60-90 minutes before incubation at 33° C. with 5% CO2 for 3 days prior to hematopoietic cell plating. […]

| Compound | rescue of anti-leukemia effect of lovastatic acid [1] | hit in primary screen [2] | hit in primary screen ([2]; listed as L-744832) | activity against AML cell lines [3] | IC50 [3] | leukemia cobblestone inhibition (human CAFC) [4] | toxicity against normal primary CD34+ cells (human CAFC) [5] | IC50 ([6]; read-out: Normal IC50) | IC50 ([7]; MLL-AF9, read-out: Leukemia IC50) | leukemia-selective activity in coculture vs normal HSPCs [7] | IC50 ([6]; read-out: Normal IC50, HSPCs on primary MSC stroma, 8-point dose) | IC50 ([7]; MLL-AF9, LSCs on primary MSC stroma, 8-point dose, read-out: Leukemia IC50) |
| --- | --- | --- | --- | --- | --- | --- | --- | --- | --- | --- | --- | --- |
| C[C@@]1(O)CCOC(=O)C1 [mevalonolactone] | rescues the anti-leukemia effect of lovastatin; also recorded: rescued the anti-leukemia effects of lovastatic acid |  |  |  |  |  |  |  |  |  |  |  |
| CC[C@H](C)[C@@H](COC(Cc1ccccc1)C(=O)N[C@@H](CCS(C)(=O)=O)C(=O)OC(C)C)NC[C@@H](N)CS (stereo partly drawn) [L-744, 832] |  | independently scored | independently hit |  |  |  |  |  |  |  |  |  |
| CCCCc1ccc2[nH]c(NC(=O)OC)nc2c1 [Parbendazole] |  |  |  | strong activity | < 625 nM | leukemia cobblestone inhibition was observed across all six primary leukemia samples | neither compound showed toxicity | > 20000 nM | 76 nM | leukemia-selective activity |  |  |
| COC(=O)Nc1nc2cc(SC(C)C)ccc2[nH]1 [Methiazole] |  |  |  | strong activity | < 625 nM | leukemia cobblestone inhibition was observed across all six primary leukemia samples | neither compound showed toxicity |  |  | leukemia-selective activity | > 20000 nM | 466 nM |
